{"source": "patent EP1285918A1", "about": "“C7 Ester substituted taxanes as antitumor agents” (Florida State University Research Foundation, Inc., priority 2001, dated 2003)", "key": {"blood cell populations": {"test_system": "blood cell populations", "assay": "Effect of oral treatment on blood cell populations, body weight and tumor weight in MX-1 bearing mice (Example 25, Table 23)", "type": "in vivo, nu/nu mice", "settings": "107 mg/kg single oral bolus", "protocol": "The study was terminated on Day 63.\nIn addition to survival and tumor regression responses, the effect of treatment on blood cell populations was assessed. The major effect of these antitumor compounds on blood cell populations was a marked reduction in the neutrophil cell number. As well, monocyte depletion correlated fairly well with neutrophil reduction for each antitumor compound. […] There was a correlation between antitumor activity and reduced neutrophil count. In general, toxicity (as determined by neutrophil depletion) and weight loss correlated with efficacy. Importantly, the toxicities observed with the very efficacious antitumor compounds were manageable and reversible; neutrophil count and body weight rebounded from their low points in just a few days. Table 23 summarizes the weight reduction, neutrophil and monocyte measurements on Day 4, with tumor weight reduction calculated at Day 18: Table 23"}, "[1]": {"test_system": "SKMES Human Lung Carcinoma Xenograft", "protocol": "The antitumor compound was prepared in the following vehicle: 10% ethanol and 90% Liposyn III.\nFemale Nu/Nu mice (6-8 weeks of age; implanted with 1 mm^3 SKMES lung carcinoma fragments in the flank) were sorted into treatment groups of six mice each. SKMES size ranges and group mean SKMES size ranges were 126-448 mg and 238-241 mg, respectively. […] Treatments were administered as a single i.v. bolus on Day 1, and the study was terminated on Day 60.\nThe mean days of survival is the number of days after which a SKMES neoplasm reached a size of 2.0 g and the animal was euthanized. A complete response is obtained if the tumor is not palpable at the end of the study. A partial response is obtained if the tumor shrinks to a size smaller than its size on Day 1 of the study."}, "[2]": {"settings": "15 mg/kg single i.v. bolus Day 1, 6 mice/group, study end Day 60"}, "[3]": {"settings": "62 mg/kg single i.v. bolus Day 1, 6 mice/group, study end Day 60"}, "[4]": {"settings": "108 mg/kg single i.v. bolus Day 1, 6 mice/group, study end Day 60"}, "[5]": {"settings": "154 mg/kg single i.v. bolus Day 1, 6 mice/group, study end Day 60"}}, "note": "Read-outs that look alike come from different tables or passages of the source."}
{"smiles": "CCC(=O)O[C@H]1C[C@H]2OC[C@@]2(OC(C)=O)[C@H]2[C@H](OC(=O)c3ccccc3)[C@]3(O)C[C@H](OC(=O)[C@H](O)[C@H](C=C(C)C)NC(=O)OC(C)(C)C)C(C)=C([C@@H](O)C(=O)[C@]12C)C3(C)C", "note": "[Compound 1351]", "values": [{"measurement": "Monocytes (K/µL)", "setting": "blood cell populations; Day 4", "result": 0.088, "unit": "K/µL"}, {"measurement": "Neutrophils (K/µL)", "setting": "blood cell populations; Day 4", "result": 0.408, "unit": "K/µL"}, {"measurement": "% Reduction", "setting": "blood cell populations; reduction of monocytes, Day 4", "result": 8.3, "unit": "%"}, {"measurement": "% Reduction", "setting": "blood cell populations; reduction of neutrophils, Day 4", "result": 55.2, "unit": "%"}, {"measurement": "% Reduction", "setting": "blood cell populations; reduction of tumor weight at Day 18", "result": 85.9, "unit": "%"}, {"measurement": "Weight", "setting": "blood cell populations; tumor weight at Day 18", "result": 122.1, "unit": "mg"}]}
{"smiles": "CCC(=O)O[C@H]1C[C@H]2OC[C@@]2(OC(C)=O)[C@H]2[C@H](OC(=O)c3ccccc3)[C@]3(O)C[C@H](OC(=O)[C@H](O)[C@@H](NC(=O)OC(C)(C)C)c4cccs4)C(C)=C([C@@H](O)C(=O)[C@]12C)C3(C)C", "note": "[Compound 1418]", "values": [{"measurement": "Survivors", "setting": "[1]; [2]", "result": 0}, {"measurement": "Toxic Deaths", "setting": "[1]; [2]", "result": 0}, {"measurement": "Survivors", "setting": "[1]; [3]", "result": 0}, {"measurement": "Toxic Deaths", "setting": "[1]; [3]", "result": 0}, {"measurement": "MDS (n)", "setting": "[1]; 62 mg/kg single i.v. bolus Day 1, 6 mice/group, study end Day 60, days until tumor reached 2.0 g", "result": "35.3 ± 3.3 (6) days"}, {"measurement": "Survivors", "setting": "[1]; [4]", "result": 3}, {"measurement": "Toxic Deaths", "setting": "[1]; [4]", "result": 0}, {"measurement": "Survivors", "setting": "[1]; [5]", "result": 5}, {"measurement": "Toxic Deaths", "setting": "[1]; [5]", "result": 0}, {"measurement": "MDS", "setting": "[1]; SKMES, 1418 single i.v. bolus 62 mg/kg (Group 4), 2.0 g cut-off", "result": 35.3, "unit": "days"}, {"measurement": "% Total Response", "setting": "[1]; iv, 15 mg/kg", "result": 0, "unit": "%"}, {"measurement": "Complete Responses", "setting": "[1]; iv, 15 mg/kg", "result": 0}, {"measurement": "MDS (n)", "setting": "[1]; iv, 15 mg/kg", "result": "21.2 ± 2.9 (6) days"}, {"measurement": "Partial Responses", "setting": "[1]; iv, 15 mg/kg", "result": 0}, {"measurement": "% Total Response", "setting": "[1]; iv, 62 mg/kg", "result": 0, "unit": "%"}, {"measurement": "Complete Responses", "setting": "[1]; iv, 62 mg/kg", "result": 0}, {"measurement": "Partial Responses", "setting": "[1]; iv, 62 mg/kg", "result": 0}, {"measurement": "% Total Response", "setting": "[1]; iv, 108 mg/kg", "result": 50.0, "unit": "%"}, {"measurement": "Complete Responses", "setting": "[1]; iv, 108 mg/kg", "result": 1}, {"measurement": "MDS (n)", "setting": "[1]; iv, 108 mg/kg", "result": "40.6 ± 2.9 (3) days"}, {"measurement": "Partial Responses", "setting": "[1]; iv, 108 mg/kg", "result": 2}, {"measurement": "% Total Response", "setting": "[1]; iv, 154 mg/kg", "result": 83.3, "unit": "%"}, {"measurement": "Complete Responses", "setting": "[1]; iv, 154 mg/kg", "result": 5}, {"measurement": "Partial Responses", "setting": "[1]; iv, 154 mg/kg", "result": 0}]}
